# Patent US9216973B2, “Insecticidal compounds” (Syngenta Participations AG, priority 2008, dated 2015)
# Assays:
# Assay type in all cases: in vivo
# [1] = test system: Plutella xylostella (Diamond back moth); test: Plutella xylostella larvae test on artificial diet; conditions: for effect on mortality, feeding behavior, or growth regulation: same protocol, 200 ppm; for pest or weed control at 200 ppm: 144 h, 200 ppm (concentration in well 18 ppm), artificial diet, L2 larvae, larval mortality and growth regulation after 6 days
# Protocol: (§1) This Example illustrates the insecticidal and acaricidal properties of compounds of formula (I). The tests were performed as follows:
# (§2) Cotton leaf discs were placed on agar in a 24-well microtiter plate and sprayed with test solutions at an application rate of 200 ppm. After drying, the leaf discs were infested with 5 L1 larvae. The samples were checked for mortality, feeding behavior, and growth regulation 3 days after treatment (DAT). The following compound gave at least 80% control of Spodoptera littoralis: A1, A2, A5, A6, A7, A8, A10, A11, A12, A13, A14, A15, A16, A17, A18, A19, A21, A22, A23, A24, A25, A30, A31, A32, A33, A34, A35, A39, A40, A41 A42, A43, A44, A45, A46, A47, A48, A49, A50, A51, A53, A54, A55, A59, A60, A61, A62. Heliothis virescens (Tobacco budworm): Eggs (0-24 h old) were placed in 24-well microtiter plate on artificial diet and treated with test solutions at an application rate of 200 ppm (concentration in well 18 ppm) by pipetting. After an incubation period of 4 days, samples were checked for egg mortality, larval mortality, and growth regulation. The following compound gave at least 80% control of Heliothis virescens: A1, A2, A3, A4, A5, A6, A7, A8, A10, A11, A12, A13, A14, A15, A16, A18, A19, A21, A22, A24, A25, A30, A31, A32, A33, A34, A35, A37, A38, A39, A40, A42, A43, A44, A45, A46, A47, A48, A49, A50, A51, A55, AA57, A58, A59, A60, A61, A62. Plutella xylostella (Diamond back moth): 24-well microtiter plate (MTP) with artificial diet was treated with test solutions at an application rate of 200 ppm (concentration in well 18 ppm) by pipetting. After drying, the MTP's were infested with L2 larvae (7-12 per well). After an incubation period of 6 days, samples were checked for larval mortality and growth regulation. The following compound gave at least 80% control of Plutella xylostella: A1, A2, A5, A6, A7, A8, A9, A10, A11, A12, A13, A14, A15, A16, A17, A18, A19, A20, A21, A22, A24, A25, A30, A31, A32, A33, A34, A35, A37, A38, A39, A40, A42, A43, A44, A45, A46, A47, A48, A49, A50, A51, A52, A53, A54, A55, A57, A58, A59, A60, A61, A62, B3. Diabrotica balteata (Corn root worm): A 24-well microtiter plate (MTP) with artificial diet was treated with test solutions at an application rate of 200 ppm (concentration in well 18 ppm) by pipetting. After drying, the MTP's were infested with L2 larvae (6-10 per well). After an incubation period of 5 days, samples were checked for larval mortality and growth regulation. The following compound gave at least 80% control of Diabrotica balteata: A1, A2, A5, A6, A7, A10, A11, A12, A13, A14, A15, A16, A17, A18, A19, A21, A22, A24, A25, A30, A31, A32, A33, A34, A35, A38, A39, A40, A42, A43, A44, A45, A46, A47, A48, A49, A50, A59, A60, A61, A62. Thrips tabaci (Onion thrips): Sunflower leaf discs were placed on agar in a 24-well microtiter plate and sprayed with test solutions at an application rate of 200 ppm. After drying, the leaf discs were infested with an […] population of mixed ages. After an incubation period of 7 days, samples were checked for mortality. The following compounds gave at least 80% control of Thrips tabaci: A1, A2, A5, A6, A7, A8, A10, A12, A13, A14, A15, A16, A17, A18, A19, A21, A24, A25, A30, A31, A32, A33, A34, A35, A39, A42, A43, A44, A45, A46, A47, A48, A49, A50, A51, A53, A54, A57, A58, A59, A60, A61, A62. Tetranychus urticae (Two-spotted spider mite): Bean leaf discs on agar in 24-well microtiter plates were sprayed with test solutions at an application rate of 200 ppm. After drying, the leaf discs are infested with mite populations of mixed ages. 8 days later, discs are checked for egg mortality, larval mortality, and adult mortality. The following compound gave at least 80% control of Tetranychus urticae: A1, A2, A4, A5, A6, A7, A8, A10, A11, A12, A13, A14, A15, A16, A17, A18, A19, A20, A21, A22, A30, A31, A32, A33, A34, A35, A39, A40, A41, A42, A43, A44, A45, A46, A47, A48, A49, A50, A51, A53, A54, A55, A57, A59, A60, A61, A62.
# [2] = test system: Heliothis virescens (Tobacco budworm); test: Heliothis virescens egg test on artificial diet; conditions: for effect on mortality, feeding behavior, or growth regulation: same protocol, 200 ppm; for pest or weed control at 200 ppm: 96 h, 200 ppm (concentration in well 18 ppm), eggs 0-24 h old on artificial diet, egg mortality, larval mortality, growth regulation after 4 days, read-out: control of Heliothis virescens
# Protocol: as §1, §2
# [3] = test system: Diabrotica balteata (Corn root worm); test: Diabrotica balteata larvae test on artificial diet; conditions: for effect on mortality, feeding behavior, or growth regulation: same protocol, 200 ppm; for pest or weed control at 200 ppm: 120 h, 200 ppm (concentration in well 18 ppm), artificial diet, L2 larvae, larval mortality and growth regulation after 5 days
# Protocol: as §1, §2
SMILES,"effect on mortality, feeding behavior, or growth regulation [1]","effect on mortality, feeding behavior, or growth regulation [2]","effect on mortality, feeding behavior, or growth regulation [3]",pest or weed control at 200 ppm [1] [%],pest or weed control at 200 ppm [2] [%],pest or weed control at 200 ppm [3] [%]
CC1(NC(=O)c2cccc3c(C4=NOC(c5cc(Cl)cc(Cl)c5)(C(F)(F)F)C4)cccc23)CSC1 (stereo not drawn) [A36],little or no effect,little or no effect,little or no effect,–,–,–
O=C(NC1CS(=O)(=O)C1)c1ccc(C2=NOC(c3cc(Cl)cc(Cl)c3)(C(F)(F)F)C2Br)c2ccccc12 (stereo not drawn) [A42],–,–,–,≥ 80,≥ 80,≥ 80
CC1(NC(=O)c2ccc(C3=NOC(c4cc(Cl)cc(Cl)c4)(C(F)(F)F)C3Br)c3ccccc23)CSC1 (stereo not drawn) [A43],–,–,–,≥ 80,≥ 80,≥ 80
O=C(NC1C[S+]([O-])C1)c1ccc(C2=NOC(c3cc(Cl)cc(Cl)c3)(C(F)(F)F)C2Br)c2ccccc12 (stereo not drawn) [A44],–,–,–,≥ 80,≥ 80,≥ 80
Cc1cc(C2=NCC(c3cc(Cl)cc(Cl)c3)(C(F)(F)F)C2)ccc1C(=O)NC1CS(=O)(=O)C1 (stereo not drawn) [A46],–,–,–,≥ 80,≥ 80,≥ 80
Cc1cc(C2=NCC(c3cc(Cl)cc(Cl)c3)(C(F)(F)F)C2)ccc1C(=O)NC1(C)CSC1 (stereo not drawn) [A47],–,–,–,≥ 80,≥ 80,≥ 80
Cc1cc(C2=NCC(c3cc(Cl)cc(Cl)c3)(C(F)(F)F)C2)ccc1C(=O)NC1C[S+]([O-])C1 (stereo not drawn) [A48],–,–,–,≥ 80,≥ 80,≥ 80
Cc1cc(C2=NCC(c3cc(Cl)cc(Cl)c3)(C(F)(F)F)C2)ccc1C(=O)NC1CSC1 (stereo not drawn) [A49],–,–,–,≥ 80,≥ 80,≥ 80
Cc1cc(C2=NOC(c3cc(Cl)cc(Cl)c3)(C(F)(F)F)/C2=N/O)ccc1C(=O)NC1(C)CSC1 (stereo not drawn) [A56],little or no effect,little or no effect,little or no effect,–,–,–
Cc1cc(C2=NOC(c3cc(Cl)cc(Cl)c3)(C(F)(F)F)C2F)ccc1C(=O)NC1CS(=O)(=O)C1 (stereo not drawn) [A59],–,–,–,≥ 80,≥ 80,≥ 80
Cc1cc(C2=NOC(c3cc(Cl)cc(Cl)c3)(C(F)(F)F)C2F)ccc1C(=O)NC1(C)CSC1 (stereo not drawn) [A60],–,–,–,≥ 80,≥ 80,≥ 80
Cc1cc(C2=NOC(c3cc(Cl)cc(Cl)c3)(C(F)(F)F)C2F)ccc1C(=O)NC1CSC1 (stereo not drawn) [A61],–,–,–,≥ 80,≥ 80,≥ 80
Cc1cc(C2=NOC(c3cc(Cl)cc(Cl)c3)(C(F)(F)F)C2F)ccc1C(=O)NC1C[S+]([O-])C1 (stereo not drawn) [A62],–,–,–,≥ 80,≥ 80,≥ 80
